Experimental data as given in patent publication US20110123483A1, “HMGB1 FOR CANCER TREATMENT” (DEUTSCHES KREBSFORSCHUNGSZENTRUM, priority 2009, published 2011).

Experiments:
[1] = tested on: NCH421 K glioblastoma stem-cell-like cells; assay: Cell morphology / spheroid cell aggregates; type: cell-based; details: FIG. 12B
U251MG xenograft tumors = assay: Subcutaneous U251MG xenograft tumors in CD1 nude mice, systemic treatment; type: in vivo
Procedure: All animal work was carried out in accordance with the NIH guidelines Guide for the Care and Use of Laboratory Animals. Six-week-old male athymic CD1 nude mice (Charles River, n=8) were injected subcutaneously with 7.5×10^6 U251MG cells in 100 μl PBS in the right flank using a 30-gauge needle. After 3 weeks, treatment of the xenograft tumors was initiated with 10 μg rhHMGB1 in 500 μl PBS or PBS only (control group) by daily intraperitoneal injections at the contralateral side for 6 weeks. Tumor volume was measured by a calliper using the ellipsoid formula (length×width×height×½) as described (Tomayko and Reynolds, 1989). After 6 weeks of treatment the animals were sacrificed and the paraffin embedded tumor sections were subjected to immunofluorescence analysis as outlined below.
Paraffin embedded slices of mouse tissue or xenograft tumors were dewaxed and dehydrated using xylene and ethanol, followed by heat-induced antigen retrieval using 10 mM citrate buffer, pH 6.0, for 3×5 min in a cooker. The sections were incubated with 1:10 COX IV (Alexa Fluor® 488 conjugate) antibody over night at 4° C., washed with PBS and covered with Vectashield® mounting medium (H-1200, Vector Laboratories Inc., 94010 CA, USA) containing DAPI (1.5 μg/ml).

NCH421 K cells = assay: Propidiumiodide (PI) uptake by FACS analysis; type: cell-based; details: 80 nM or 600 nM (FIG. 12C)
mitochondrial DNA = assay: Dot blot analysis of mitochondrial DNA; type: cell-based, human; details: 24 h (FIG. 11A)
Procedure: Subcellular fractionation was performed as described below. The DNA of the resulting mitochondrial suspension was purified by a modified method described in Almeida et al. (Almeida et al., 2006). Briefly, contaminating nuclear DNA was precipitated by lysis of the mitochondria in a buffer of 50 mM glucose, 1.5 mM EDTA, 25 mM Tris-HCl, pH 7.4 with 20% SDS and 3 M K-acetate. After centrifugation (10 min, 4° C., 10.000×g) the supernatant was digested with 20 mg/ml proteinase K for 1 h at 37° C. and mtDNA was extracted twice with phenol-chloroform and one additional time with chloroform, followed by precipitation of mtDNA from the aqueous phase by adding two volumes of isopropanol. The pellet was washed with 80% ethanol at −20° C. After drying the mtDNA was solved in TE-buffer (10 mM Tris-HCl, pH 7.4, 1 mM EDTA, pH 8.0). After treatment of the samples with 100 μg/ml ribonuclease A (RNAse A) for 1 h at 37° C., the phenol-chloroform extraction steps were repeated and mtDNA was precipitated by adding 2 volumes of 100% ethanol and 1/10 volume 5 M NaCl at −20° C. overnight. After a centrifugation step for 20 min at 4° C. with 13,000 rpm and washing the pellet 2× with 80% ethanol, followed by drying, the pellet was solved in ddH2O. The purified DNA was digested overnight with BamHI and loaded on a 0.5% agarose gel. […] Labeling efficiency was determined as described in the kit. […]

U251 MG cells [2] = assay: Subcellular fractionation and Western blot: cytochrome c release, caspase 3 cleavage; type: cell-based, human; details: rhHMGB1 80 nM, 24 h (FIG. 6)
Procedure: The U251 MG tumor cells were lysed in lysis buffer containing 20 mmol/L Tris-HCl (pH 7.4), 137 mmol/L NaCl, 10% (v/v) glycerine, 1% Triton X-100, 2 mmol/L EDTA, 100 mmol/L phenylmethylsulfonyl fluoride, and protease inhibitors (Complete mini; Roche Molecular Biochemicals). For the detection of phosphoprotein levels, 10 mmol/L NaPPi, 50 mmol/L NaF, and 20 mmol/L NaVO4 were added to the lysis buffer. After 15 min incubation on ice, the lysates were centrifuged at 14,000×g for 10 min. The total protein concentration of the lysates was measured using the Bradford assay (Bio-Rad). Soluble protein (25-100 μg per lane) was separated on 10% to 15% polyacrylamide gels and blotted onto nitrocellulose by standard procedures. The membranes were washed, incubated with primary antibody as indicated: mouse anti-human caspase-3 (1:500, Imgenex, San Diego, Calif.); polyclonal rabbit anti-human phosphorylated p44/42 mitogen-activated protein kinase and polyclonal rabbit anti-human phosphorylated stress-activated protein kinase/JNK (1:1,000, Cell Signaling Technology, Inc.); polyclonal anti-rabbit JNK 54/46 (1:1,000, Cell Signaling Technology, Inc.); polyclonal rabbit anti-human IkBalpha (1:500, Santa Cruz Biotechnology, Inc.); mouse monoclonal anti-human BNIP3 (1:10,000, R&D Systems, Inc.); mouse monoclonal anti-human phosphorylated-histone H2A.X (Upstate, Inc.); mouse monoclonal anti-human cytochrome c (1:100, BD Biosciences Pharmingen GmbH, Heidelberg, Germany); mouse anti-human cytochrome c oxidase complex IV (1:100, Molecular Probes, Invitrogen, Karlsruhe, Germany); polyclonal rabbit antimalondialdehyde (1:250, Calbiochem, Merck, Darmstadt, Germany) and mouse monoclonal antibodies to β-tubulin or β-actin (1:3,000, Sigma Chemical Co., St. Louis, Mo.), washed, and incubated with the appropriate secondary antibody (1:3,000; horseradish peroxidase-conjugated, Bio-Rad). Bound antibodies were visualized using an enhanced chemiluminescence detection system (GE-Healthcare, Uppsala, Sweden).
Enrichment of mitochondrial fractions was performed using the ApoAlert Cell Fractionation Kit (Clontech, Mountain View, Calif.) as described previously (Gdynia et al., 2008). Briefly, after centrifugation and several washing steps, the cell pellet was resuspended in ice-cold 1× Fractionation Buffer Mix containing protease inhibitors (Complete mini; Roche Molecular Biochemicals, Indianapolis, Ind.) and 1 mM 1,4-Dithio-DL-threitol solution (DTT). After 10 min incubation on ice, cells were homogenized with a dounce tissue grinder. Efficiency of homogenization was controlled by microscopy. The homogenate was centrifuged at 700×g for 10 min at 4° C. and the resulting supernatant at 10,000×g for 25 min at 4° C. […]

JNK1/2 = assay: Western blot analysis of JNK1/2 phosphorylation; type: cell-based, human; details: 24 h (FIG. 3C)
Procedure: (§1) The U251 MG tumor cells were lysed in lysis buffer containing 20 mmol/L Tris-HCl (pH 7.4), 137 mmol/L NaCl, 10% (v/v) glycerine, 1% Triton X-100, 2 mmol/L EDTA, 100 mmol/L phenylmethylsulfonyl fluoride, and protease inhibitors (Complete mini; Roche Molecular Biochemicals). For the detection of phosphoprotein levels, 10 mmol/L NaPPi, 50 mmol/L NaF, and 20 mmol/L NaVO4 were added to the lysis buffer. After 15 min incubation on ice, the lysates were centrifuged at 14,000×g for 10 min. The total protein concentration of the lysates was measured using the Bradford assay (Bio-Rad). Soluble protein (25-100 μg per lane) was separated on 10% to 15% polyacrylamide gels and blotted onto nitrocellulose by standard procedures. […]

U251 MG cells [3] = assay: Western blot of phospho-H2A.X and BNIP3; type: cell-based, human; details: 24 h (FIG. 7)
Procedure: as §1

## rhHMGB1: recombinant human High Mobility Group B1 protein (Sigma Aldrich)
[1]
  anti-proliferative effect, spheroid cell aggregates: clearly smaller and fewer spheroid cell aggregates
U251MG xenograft tumors; 10 μg daily intraperitoneal, after six weeks (FIG. 1D)
  tumor size versus control group: significantly smaller tumors than the control group
U251MG xenograft tumors; after a 6 week systemic treatment (FIG. 9)
  formation of megamitochondria in xenograft tumor tissue: formation of megamitochondria was also observed
NCH421 K cells
  Propidiumiodide (PI) uptake compared to untreated control: evidently increased
Mitochondrial DNA
  mitochondrial DNA content: substantial and rapid depletion of mtDNA
U251 MG cells [2]
  activation of caspase 3: neither activation of caspase 3
  release of cytochrome c: nor release of cytochrome c was observed
JNK1/2
  phosphorylation of c-Jun N-terminal kinase 1/2 (JNK): continuous and dose dependent phosphorylation
U251 MG cells [3]
  BNIP3 expression: not up-regulated
  H2A.X phosphorylation: not observed
